Data on 6 compounds can be found in the supplement of paper PMC11061612.

Test [1] relates to KY821 (Acute Myeloid Leukemia). Description: Bliss excess, mean over the matrix (fraction); higher = more synergy. The procedure, abridged: (§1)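 Bliss excess equals the observed combination effect minus the expected value EA + EB − EA·EB, where EA and EB are the effects of each agent alone. Combination Emax is the second-highest inhibition within the matrix. Inhibition was scaled from CellTiter-Glo 2.0 luminescence, with 0 set by vehicle wells and 1 by blank wells, after 72 hours of two-drug dosing of cells plated in 1536-well plates.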

In test [2] the test system is CHSA8926 (Chondrosarcoma). The description is as above. The procedure, abridged:
as §1

Test [3] concerns PC-3 (Prostate Carcinoma). The description is as above. The procedure, abridged: as §1
Test [4] deals with NCCIT (Other Solid Carcinomas). Described as above. In a few lines:
as §1

For test [5], the system named is HCC1187 (Breast Carcinoma). The description is as above. In a few lines: as §1
Test [6] has as its system SUP-B15 (B-Lymphoblastic Leukemia). The test is described as above. The procedure, abridged:
as §1

Test [7] deals with KYSE-270 (Esophageal Squamous Cell Carcinoma). The test is described as above. The procedure, abridged:
as §1

Test [8] has as its system NCI-H929 (Plasma Cell Myeloma). Described as above. The procedure, abridged: as §1
In test [9] the test system is KP-3 (Pancreatic Carcinoma). Described as above. The procedure, abridged:
as §1

Test [10] has as its system M059J (Glioblastoma). The description is as above. In a few lines:
as §1

The subject of test [11] is IM-95 (Gastric Carcinoma). The description is as above. In a few lines:
as §1

Test [12] concerns NCI-H526 (Small Cell Lung Carcinoma). The test is described as above. The procedure, abridged:
as §1

The subject of test [13] is G-361 (Melanoma). The test is described as above. In a few lines:
as §1

Test [14] relates to SJSA-1 (Osteosarcoma). Described as above. In a few lines: as §1
For test [15], the system named is MOLM-13 (Acute Myeloid Leukemia). The test is described as above. In a few lines:
as §1

In test [16] the test system is DAN-G (Pancreatic Carcinoma). Described as above. The procedure, abridged: as §1
Test [17] has as its system MN-60 (B-Lymphoblastic Leukemia). The description is as above. In a few lines:
as §1

Test [18] concerns MOG-G-CCM (Low Grade Glioma). The test is described as above. In a few lines:
as §1

Test [19] deals with JHH-4 (Hepatocellular Carcinoma). Described as above. The procedure, abridged: as §1
Test [20] deals with KU812 (Chronic Myelogenous Leukemia). Description: combination Emax (second highest fraction inhibited in the dose matrix, 72 h); higher = more inhibition; extreme values may be limits of the assay. The procedure, abridged:
as §1

For the compound `CN(CCO)CC[C@H](CSc1ccccc1)Nc1ccc(S(=O)(=O)NC(=O)c2ccc(N3CCC([C@@H](O)c4ccccc4-c4ccc(Cl)cc4)CC3)cc2)cc1S(=O)(=O)C(F)(F)F` [AZD4320] + CN(C)CCCOc1ccc(-c2ccc3ncc4c(c3c2)n(C2CCOCC2)c(=O)n4C)cn1 [AZD0156] (first compound max 1 µM, 7x7, partner max 1 µM), the Bliss excess was 0.002 in test [1]; -0.0797 in [2]; -0.0266 in test [3]; -0.0299 in test [4]; 0.0062 in test [5]; -0.0535 in [6]. In addition, the Bliss excess is -0.0152 in [7]; -0.0267 in test [8]; -0.0462 in test [9]; 0.0015 in test [10]; -0.0683 in test [11]; -0.0092 in test [12]. Also, the Bliss excess in test [13] was 0.001; in test [14] it was 0.0377; in test [15], -0.0649; in test [16], -0.0031; in [17] it was 0.0032; in test [18], -0.0155. Besides, the Bliss excess in test [19] is -0.016. The “combination Emax” value in test [20] came to 0.751.

Consider `COc1nnc2ccc(N3CCC(c4ccc(OCCN5CCN(C)C(=O)[C@H]5C)cc4)CC3)nn12` [AZD5153] + Cc1c2c(nn1C)CSCc1cc(n(C)n1)CSc1cc(c3ccccc3c1)OCCCc1c(C(=O)O)n(C)c3c-2c(Cl)ccc13 [AZD5991] (first compound max 1 µM, 7x7, partner max 1 µM), for which the Bliss excess in test [1] was 0.0104; in test [2] it was -0.0166; in test [3], -0.054; in [4], -0.0196; in test [5], 0.0079; in test [6], 0.0356. Moreover, the Bliss excess is 0.0085 in test [7]; -0.0142 in test [8]; -0.0446 in test [9]; -0.0072 in test [10]; -0.0477 in [11]; 0.03 in test [12]. Further, the Bliss excess is 0.0501 in test [13]; -0.0673 in test [14]; -0.0238 in test [15]; -0.0163 in [16]; -0.0765 in test [17]; 0.0248 in test [18]. Also, the Bliss excess in test [19] was 0.0096. The “combination Emax” value in test [20] worked out at 0.987.

On to `Cn1cnc2c(F)c(Nc3ccc(Br)cc3Cl)c(C(=O)NOCCO)cc21` [Selumetinib] + C[C@@H]1COCCN1C2=NC(=NC(=C2)C3(CC3)[S@](=N)(=O)C)C4=C5C=CNC5=NC=C4 [AZD6738] (first compound max 10 µM, 7x7, partner max 10 µM), for which the Bliss excess in test [1] is -0.0519; in [2] it was -0.031; in test [3], -0.036; in test [4], -0.0802; in [5], -0.0539; in test [6], 0.142. For the same compound, the Bliss excess in test [7] is -0.0302; in [8], -0.121; in [9], -0.0459; in [10], -0.056; in test [11], 0.0554; in test [12], -0.0544. Moreover, the Bliss excess in test [13] was -0.0081; in test [14] it was 0.0241; in test [15], 0.0491; in [16], 0.0105; in [17], -0.0319; in test [18], -0.0704. In addition, in [19], the Bliss excess was -0.0395. In addition, in [20], the “combination Emax” value amounted to 0.969.

Turning to `NC1(C(=O)N[C@@H](CCO)c2ccc(Cl)cc2)CCN(c2ncnc3[nH]ccc23)CC1` [Capivasertib] + CC(=O)c1c(C)c2cnc(Nc3ccc(N4CCNCC4)cn3)nc2n(C2CCCC2)c1=O [Palbociclib] (first compound max 10 µM, 7x7, partner max 10 µM), the Bliss excess was -0.0078 in test [1]; -0.0171 in test [2]; 0.0068 in test [3]; 0.0183 in test [4]; 0.0279 in [5]; -0.007 in test [6]. Also, the Bliss excess in test [7] is -0.0135; in test [8], -0.0066; in test [9], -0.0372; in test [10] it was -0.0489; in test [11], 0.0182; in test [12], -0.0331. Moreover, the Bliss excess in test [13] is -0.0381; in test [14], -0.0445; in [15], -0.0098; in test [16], -0.0581; in [17], -0.0365; in test [18], -0.0389. Moreover, the Bliss excess in [19] is -0.0242. In test [20], the “combination Emax” value is 0.552.

`CN(C)CCCOc1ccc(-c2ccc3ncc4c(c3c2)n(C2CCOCC2)c(=O)n4C)cn1` [AZD0156] + C[C@@H]1COCCN1C2=NC(=NC(=C2)C3(CC3)[S@](=N)(=O)C)C4=C5C=CNC5=NC=C4 [AZD6738] (first compound max 1 µM, 7x7, partner max 10 µM): the Bliss excess is 0.0228 in test [1]; -0.0328 in [2]; -0.0168 in test [3]; -0.0174 in test [4]; 0.0161 in [5]; 0.0247 in test [6]. Moreover, the Bliss excess in [7] is 0.0568; in test [8], -0.0182; in test [9], -0.0325; in test [10], 0.0092; in test [11], -0.0126; in test [12], -0.0051. Also, the Bliss excess was 0.032 in test [13]; -0.0266 in test [14]; -0.0334 in [15]; 0.0425 in test [16]; -0.0041 in test [17]; -0.0593 in test [18]. The Bliss excess in [19] is -0.0317. Also, the “combination Emax” value in [20] was found to be 0.735.

Turning to `COc1nnc2ccc(N3CCC(c4ccc(OCCN5CCN(C)C(=O)[C@H]5C)cc4)CC3)nn12` [AZD5153] + CC1(C)CCC(CN2CCN(c3ccc(C(=O)NS(=O)(=O)c4ccc(NCC5CCOCC5)c([N+](=O)[O-])c4)c(Oc4cnc5[nH]ccc5c4)c3)CC2)=C(c2ccc(Cl)cc2)C1 [Venetoclax] (first compound max 1 µM, 7x7, partner max 1 µM), the Bliss excess is -0.0376 in [1]; -0.0287 in [2]; -0.109 in test [3]; -0.0245 in [4]; -0.0462 in test [5]; 0.0051 in test [6]. The Bliss excess in test [7] is -0.0185; in test [8], 0.0001; in test [9], -0.0399; in test [10], -0.0124; in test [11] it was -0.0663; in test [12] it was 0.0192. For the same compound, the Bliss excess was -0.0649 in test [13]; -0.0481 in test [14]; 0.0179 in test [15]; -0.0437 in test [16]; -0.0708 in test [17]; -0.0471 in test [18]. Besides, the Bliss excess in test [19] is -0.0442. The “combination Emax” value in test [20] came to 0.924.
